Experimental data published in US12180187B2, “1-phenyl-5-azinylpyrazolyl-3-oxyalkyl acids and their use for controlling unwanted plant growth” (BAYER AKTIENGESELLSCHAFT, priority 2019, dated 2024).

Tests used:
POAAN [1] = test: Pre-emergence action against POAAN, 1280 g/ha; format: in vivo, Poa annua; settings: visual scoring after about 3 weeks vs untreated controls, 100% = plants have died, 0% = like control plants
Summary of the method: (§1)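 Mono- and dicot weed seeds sown in sandy loam were treated on the covering soil surface with WP or EC formulations plus 0.5% additive at 600 L water/ha. Pots stayed in a greenhouse; damage was scored visually after ~3 weeks as percent versus untreated controls (100% = dead).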

DIGSA = test: Pre-emergence action at 320 g/ha against DIGSA; format: in vivo, Digitaria sanguinalis; settings: visual scoring after about 3 weeks vs untreated controls
Summary of the method: (§2)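 Visual % scoring at about 3 weeks post-treatment against untreated pots (0% = like control, 100% = dead), greenhouse-grown. Compounds applied at 320 g/ha as aqueous WP/EC suspension or emulsion plus 0.5% additive, 600 l/ha water, onto covering soil of freshly sown pots before emergence.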

ECHCG [2] = test: Pre-emergence action against ECHCG, 1280 g/ha; format: in vivo, Echinochloa crus-galli; settings: visual scoring after about 3 weeks vs untreated controls, 100% = plants have died, 0% = like control plants
Summary of the method: as §1

ECHCG [3] = test: Post-emergence action against ECHCG, 1.28 kg/ha; format: in vivo, Echinochloa crus-galli; settings: dosage 1280 g/ha, visual rating about 3 weeks after treatment vs untreated controls
Summary of the method: (§3)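 Post-emergence greenhouse spray, one-leaf stage (2–3 wk after sowing), sandy loam. WP/EC, aqueous + 0.5% additive, 600 L/ha water. Visual % activity vs untreated, ~3 wk after treatment; 100% = plants dead.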

AMARE [4] = test: Pre-emergence action against AMARE, 1280 g/ha; format: in vivo, Amaranthus retroflexus; settings: scored visually after about 3 weeks vs untreated controls (100% = plants have died)
Summary of the method: as §1

AMARE [5] = test: Pre-emergence action at 320 g/ha against AMARE; format: in vivo, Amaranthus retroflexus; settings: visual scoring after about 3 weeks vs untreated controls
Summary of the method: as §2

POAAN [6] = test: Post-emergence action against POAAN, 1.28 kg/ha; format: in vivo, Poa annua; settings: dosage 1280 g/ha, visual rating about 3 weeks after treatment vs untreated controls
Summary of the method: as §3

AVEFA = test: Pre-emergence action at 320 g/ha against AVEFA; format: in vivo; settings: visual scoring after about 3 weeks vs untreated controls
Summary of the method: as §2

ALOMY = test: Pre-emergence action at 320 g/ha against ALOMY; format: in vivo, Alopecurus myosuroides; settings: scored visually after about 3 weeks vs untreated controls (100% = plants have died)
Summary of the method: as §2

POLCO = test: Pre-emergence action at 320 g/ha against POLCO; format: in vivo, Fallopia convolvulus (Polygonum convolvulus); settings: visual scoring after about 3 weeks vs untreated controls
Summary of the method: as §2

SETVI [7] = test: Pre-emergence action against SETVI, 1280 g/ha; format: in vivo, Setaria viridis; settings: visual scoring after about 3 weeks vs untreated controls, 100% = plants have died, 0% = like control plants
Summary of the method: as §1

STEME = test: Pre-emergence action against STEME, 1280 g/ha; format: in vivo, Stellaria media; settings: scored visually after about 3 weeks vs untreated controls (100% = plants have died)
Summary of the method: as §1

MATIN = test: Pre-emergence action against MATIN, 1280 g/ha; format: in vivo, Tripleurospermum inodorum (Matricaria inodora); settings: scored visually after about 3 weeks vs untreated controls (100% = plants have died)
Summary of the method: as §1

SETVI [8] = test: Pre-emergence action at 320 g/ha against SETVI; format: in vivo, Setaria viridis; settings: visual scoring after about 3 weeks vs untreated controls
Summary of the method: as §2

SMILES	Pre-emergence action against POAAN (POAAN [1]) [%]	Pre-emergence action against DIGSA in % (DIGSA) [%]	Pre-emergence action against ECHCG (ECHCG [2]) [%]	Post-emergence action against ECHCG (ECHCG [3]) [%]	Pre-emergence action against AMARE (AMARE [4]) [%]	Pre-emergence action against AMARE in % (AMARE [5]) [%]	Post-emergence action against POAAN (POAAN [6]) [%]	Pre-emergence action against AVEFA in % (AVEFA) [%]	Pre-emergence action at 320 g/ha against ALOMY in % (ALOMY) [%]	Pre-emergence action against POLCO in % (POLCO) [%]	Pre-emergence action against SETVI (SETVI [7]) [%]	Pre-emergence action against STEME (STEME) [%]	Pre-emergence action against MATIN (MATIN) [%]	Pre-emergence action against SETVI in % (SETVI [8]) [%]	other results
CCOC(=O)COc1nn(-c2ccccc2F)c(-c2cncc(F)c2)c1Br [VII-015]	100	100	100	100	100	100	100	90	100	100	100	100	100	100	–
CCOC(=O)COc1nn(-c2ccc(F)cc2F)c(-c2ccc(F)nc2)c1Cl [VII-016]	100	100	100	90	100	100	100	90	100	90	100	100	90	100	–
COC(=O)COc1nn(-c2ccccc2)c(-c2ccc(F)nc2)c1Br [VII-018]	100	100	100	90	100	100	100	80	100	100	100	100	90	100	–
CCOC(=O)C(C)Oc1nn(-c2ccccc2F)c(-c2ccc(F)nc2)c1Br (stereo not shown) [VII-019]	100	100	100	100	100	100	100	90	100	100	100	100	90	100	–
COC(=O)C(C)Oc1nn(-c2ccccc2)c(-c2ccc(F)nc2)c1Cl (stereo not shown) [VII-023, Methyl 2-{[4-chloro-5-(6-fluoropyridin-3-yl)-1-phenyl-1H-pyrazol-3-yl]oxy}propanoate]	–	–	–	–	–	–	–	–	–	–	–	–	–	–	pest or weed control at 1280 g/ha (POAAN [1]; Poa annua, 504 h): 100%; pest or weed control at 320 g/ha (DIGSA; Digitaria sanguinalis, 504 h): 100%; pest or weed control at 1280 g/ha (ECHCG [2]; Echinochloa crus-galli, 504 h): 100%; pest or weed control at 1280 g/ha (ECHCG [3]; Echinochloa crus-galli, 504 h): 90%; pest or weed control at 1280 g/ha (AMARE [4]; Amaranthus retroflexus, 504 h): 100%; pest or weed control at 320 g/ha (AMARE [5]; Amaranthus retroflexus, 504 h): 100%; pest or weed control at 1280 g/ha (POAAN [6]; Poa annua, 504 h): 100%; pest or weed control at 320 g/ha (AVEFA; Avena fatua, 504 h): 90%; pest or weed control at 320 g/ha (ALOMY; Alopecurus myosuroides, 504 h): 100%; pest or weed control at 320 g/ha (POLCO; Fallopia convolvulus, 504 h): 100%; pest or weed control at 1280 g/ha (SETVI [7]; Setaria viridis, 504 h): 100%; pest or weed control at 1280 g/ha (STEME; Stellaria media, 504 h): 100%; pest or weed control at 1280 g/ha (MATIN; Tripleurospermum inodorum, 504 h): 90%; pest or weed control at 320 g/ha (SETVI [8]; Setaria viridis, 504 h): 100%
O=C(O)COc1nn(-c2ccccc2F)c(-c2cncc(F)c2)c1Br [VII-025]	100	100	100	100	100	100	100	80	100	100	100	100	100	100	–
COC(=O)COc1nn(-c2ccccc2F)c(-c2ccc(F)nc2)c1C(F)(F)F [VII-031]	100	100	90	100	100	100	100	100	100	100	100	100	100	100	–
COC(=O)C(C)Oc1nn(-c2ccccc2)c(-c2cccnc2)c1Cl (stereo not shown) [VII-032]	100	90	100	100	100	100	100	80	100	90	100	100	90	90	–
COC(=O)COc1nn(-c2ccccc2F)c(-c2cncc(F)c2)c1Br [VII-035]	100	100	100	100	100	100	100	90	100	90	100	100	100	100	–
O=C(O)COc1nn(-c2ccccc2F)c(-c2ccc(F)nc2)c1I [VII-037]	100	100	100	90	100	100	100	90	100	100	100	100	100	100	–
COC(=O)COc1nn(-c2ccccc2F)c(-c2ccc(F)nc2)c1F [VII-040]	100	100	100	100	100	100	100	100	100	90	100	100	100	100	–
